{"source": "patent EP0799188B1", "about": "“AMIDES OF MONO AND DICARBOXYLIC ACIDS WITH GLYCOSAMINES, SELECTIVELY ACTIVE ON THE CANNABINOID PERIPHERAL RECEPTOR” (LIFEGROUP S.p.A., priority 1994, dated 1996)", "key": {"RBL-2H3 cells": {"tested_on": "RBL-2H3 cells", "test": "3H-serotonin release induced by ADNP/DNP.HSA immunogenic stimulation", "type": "cell-based, rat", "settings": "for effect on serotonin release (RBL cells immunogenic activation): statement in words on Table 3; for inhibition at 5 µM: RBL-2H3, read-out: 3H-serotonin net release inhibition (%), 5µM"}, "CB2 receptor [1]": {"target": "T1, CB2 receptor (Rattus norvegicus, UniProt Q9QZN9)", "T1 construct": "30 µg membrane proteins prepared in item a); endogenous in cells; host or cells: RBL-2H3 cells (plasma membrane preparation)", "T1 sequence (Q9QZN9 1-360)": "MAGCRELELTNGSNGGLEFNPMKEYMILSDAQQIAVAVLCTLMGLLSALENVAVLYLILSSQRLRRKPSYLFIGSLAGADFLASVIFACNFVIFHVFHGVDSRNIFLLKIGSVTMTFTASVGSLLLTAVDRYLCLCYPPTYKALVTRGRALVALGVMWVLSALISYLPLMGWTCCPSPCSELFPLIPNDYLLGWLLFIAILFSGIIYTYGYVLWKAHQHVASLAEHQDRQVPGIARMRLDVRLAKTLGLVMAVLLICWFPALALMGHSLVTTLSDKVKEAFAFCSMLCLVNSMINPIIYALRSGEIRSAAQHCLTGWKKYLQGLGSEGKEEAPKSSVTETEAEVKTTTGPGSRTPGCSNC", "test": "saturation curve of 3H-WIN 55,212-2 binding to RBL-2H3 cell membranes", "settings": "3H-WIN 55,212-2 0.5 to 20 nM, 30 µg membrane proteins, 30°C 60 min"}, "[2]": {"tested_on": "cerebellar granule cell culture", "test": "neuroprotective effect against glutamate-induced cell death (MTT)", "type": "cell-based, mouse", "settings": "for EC50: glutamate 500 µM for 5 minutes, compound added for 10 minutes, 15 minutes after removing glutamate, MTT after 24 hours, means ± SEM"}, "CB2 receptor [3]": {"target": "CB2 receptor (Homo sapiens, UniProt P34972)", "sequence (P34972 whole entry)": "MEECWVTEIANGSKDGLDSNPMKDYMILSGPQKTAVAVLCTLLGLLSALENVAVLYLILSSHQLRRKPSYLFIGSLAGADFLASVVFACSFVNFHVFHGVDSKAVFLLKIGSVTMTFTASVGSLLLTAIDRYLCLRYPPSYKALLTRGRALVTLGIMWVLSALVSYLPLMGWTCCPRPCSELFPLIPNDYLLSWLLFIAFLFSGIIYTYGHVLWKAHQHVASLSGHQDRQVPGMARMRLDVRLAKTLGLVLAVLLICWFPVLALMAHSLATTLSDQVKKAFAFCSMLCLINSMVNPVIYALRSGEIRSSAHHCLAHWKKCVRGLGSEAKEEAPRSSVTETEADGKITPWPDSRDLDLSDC", "settings": "CB2 versus CB1 central receptor; cited from earlier work"}, "CB2 receptor [4]": {"target": "T1, CB2 receptor", "test": "3H-WIN 55,212-2 binding displacement on RBL-2H3 cell membranes"}, "[5]": {"settings": "competitor 10 µM, amides in 0.1% DMSO, Anandamide and Nabilone in 0.1% ethanol"}}, "note": "Like-named read-outs stand apart in the source and are kept apart here.", "data": [{"smiles": "Cc1c(C(=O)c2cccc3ccccc23)c2cccc3c2n1[C@H](CN1CCOCC1)CO3", "note": "[WIN 55,212-2, reference compound]", "values": [{"measurement": "3H-serotonin net release inhibition (%)", "setting": "RBL-2H3 cells; 30µM, + anandamide (12.5 µM)", "result": 36, "unit": "%"}, {"measurement": "3H-serotonin net release inhibition (%)", "setting": "RBL-2H3 cells; 30µM, -anandamide", "result": 100, "unit": "%"}, {"measurement": "3H-serotonin net release (%)", "setting": "RBL-2H3 cells; 50µM, 0.1% DMSO and 0.1% ethanol", "result": 0, "unit": "%"}, {"measurement": "3H-serotonin net release inhibition (%)", "setting": "RBL-2H3 cells; WIN 55,212-2 30 µm, + 12.5µM anandamide", "result": 15, "unit": "%"}, {"measurement": "3H-serotonin net release inhibition (%)", "setting": "RBL-2H3 cells; WIN 55,212-2 30 µm, + 12.5µM arachidonic acid", "result": 59, "unit": "%"}, {"measurement": "3H-serotonin net release inhibition (%)", "setting": "RBL-2H3 cells; WIN 55,212-2 30 µm, + 12.5µM ethanolamide + 12.5µM arachidonic acid", "result": 61, "unit": "%"}, {"measurement": "3H-serotonin net release inhibition (%)", "setting": "RBL-2H3 cells; WIN 55,212-2 30 µm, + 12.5µM ethanolamine", "result": 72, "unit": "%"}, {"measurement": "3H-serotonin net release inhibition (%)", "setting": "RBL-2H3 cells; WIN 55,212-2 30 µm, DNP.HSA alone", "result": 69, "unit": "%"}, {"measurement": "EC50", "setting": "RBL-2H3 cells; inhibition of 3H-serotonin release, +anandamide (12.5 µM), read-out: ED50 (the source's name)", "result": 40, "unit": "µM"}, {"measurement": "EC50", "setting": "RBL-2H3 cells; inhibition of 3H-serotonin release, -anandamide, read-out: ED50 (the source's name)", "result": 6.4, "unit": "µM"}, {"measurement": "EC50", "setting": "RBL-2H3 cells; inhibition of serotonin release, 0.1% DMSO and 0.1% ethanol, read-out: ED50 (µm)", "result": 6.4, "unit": "µM"}, {"measurement": "effect on serotonin release (RBL cells immunogenic activation)", "setting": "RBL-2H3 cells", "result": "able to inhibit, in a concentration-dependent way"}, {"measurement": "Bmax", "setting": "CB2 receptor [1]", "result": "100 to 250", "unit": "pM"}]}, {"smiles": "CCCCC/C=C\\C/C=C\\C/C=C\\C/C=C\\CCCC(=O)NCCO", "note": "[Anandamide, arachidonylethanolamide, reference compound]", "values": [{"measurement": "inhibition at 12.5 µM", "setting": "RBL-2H3 cells; Rattus norvegicus, RBL-2H3, read-out: 3H-serotonin net release inhibition (%), 12.5µM, -WIN", "result": 7, "unit": "%"}, {"measurement": "3H-serotonin net release (%)", "setting": "RBL-2H3 cells; concentration not given, 0.1% DMSO and 0.1% ethanol", "result": 100, "unit": "%"}, {"measurement": "effect on serotonin release (RBL cells immunogenic activation)", "setting": "RBL-2H3 cells", "result": "unable to affect serotonin release"}, {"measurement": "EC50", "setting": "[2]", "result": "no effect (3)"}, {"measurement": "protective effect against cell death induced by glutamate", "setting": "[2]; glutamate 500 µM, anandamide up to 100 µM", "result": "not effective"}, {"measurement": "affinity to the CB2 receptor, folds inferior to that of the central receptor", "setting": "CB2 receptor [3]", "result": 30, "unit": "folds"}, {"measurement": "Displacement (%)", "setting": "CB2 receptor [4]; [5]", "result": 95, "unit": "%"}, {"measurement": "Specific binding", "setting": "CB2 receptor [4]; [5]", "result": 99}]}, {"smiles": "CCCCCCC(C)(C)c1cc(O)c2c(c1)OC(C)(C)C1CCC(=O)CC21", "note": "(stereo not shown) [Nabilone, 3-(1,1-dimethylheptyl)-6,6a,7,8,10,10a-hexahydro-1-hydroxy-6,6-dimethyl-9H-dibenzo-[b,d]-pyran-9-one, reference compound]", "values": [{"measurement": "3H-serotonin net release (%)", "setting": "RBL-2H3 cells; 10µM, 0.1% DMSO and 0.1% ethanol", "result": 0, "unit": "%"}, {"measurement": "inhibition at 5 µM", "setting": "RBL-2H3 cells; Rattus norvegicus, + anandamide (12.5 µM)", "result": 50, "unit": "%"}, {"measurement": "inhibition at 5 µM", "setting": "RBL-2H3 cells; Rattus norvegicus, -anandamide", "result": 90, "unit": "%"}, {"measurement": "EC50", "setting": "RBL-2H3 cells; Rattus norvegicus, RBL-2H3, read-out: ED50 (µM), inhibition of 3H-serotonin release, +anandamide (12.5 µM)", "result": 5, "unit": "µM"}, {"measurement": "EC50", "setting": "RBL-2H3 cells; Rattus norvegicus, RBL-2H3, read-out: ED50 (µM), inhibition of 3H-serotonin release, -anandamide", "result": 2.8, "unit": "µM"}, {"measurement": "EC50", "setting": "RBL-2H3 cells; Rattus norvegicus, RBL-2H3, read-out: ED50 (µm), inhibition of serotonin release, 0.1% DMSO and 0.1% ethanol", "result": 2.8, "unit": "µM"}, {"measurement": "effect on serotonin release (RBL cells immunogenic activation)", "setting": "RBL-2H3 cells", "result": "able to inhibit, in a concentration-dependent way"}, {"measurement": "EC50", "setting": "[2]; Mus musculus, read-out: EC50", "result": "3.9 ± 1.1", "unit": "µM"}, {"measurement": "IC50", "setting": "CB2 receptor [4]; IC50 (nM), RBL-2H3 cell membranes, 1% DMSO, means ± SEM", "result": "2.6 ± 1.4", "unit": "nM"}, {"measurement": "Displacement (%)", "setting": "CB2 receptor [4]; [5]", "result": 100, "unit": "%"}]}]}
